Patent publication US10131652B2, “Pyrimidinyloxy benzene derivatives as herbicides” (E. I. DU PONT DE NEMOURS AND COMPANY, priority 2014, dated 2018)

Assays:
Format in all cases: in vivo
[1] = tested on: johnsongrass (Sorghum halepense); test: Test D pre-/postemergence plant response; details: Postemergence; for Plant response rating, Johnsongrass: scale 0 to 100, 0 no effect, 100 complete control
Method in brief: (§1)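 Sown seed (loam/sand soil) treated preemergence; emerged plants, 1- to 4-leaf stage and 2 to 18 cm, treated postemergence in peat/vermiculite medium. Greenhouse incubation 13–15 d. Endpoint: visual 0–100 rating versus untreated.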

soybean (Glycine max) = test: Test D pre-/postemergence plant response; details: Postemergence; for Plant response rating, Soybean: scale 0 to 100, 0 no effect, 100 complete control
Method in brief: as §1

[2] = tested on: yellow nutsedge (Cyperus esculentus); test: Test D pre-/postemergence plant response; details: Postemergence; for Plant response rating, Nutsedge, Yellow: scale 0 to 100, 0 no effect, 100 complete control
Method in brief: as §1

[3] = tested on: large (Lg) crabgrass (Digitaria sanguinalis); test: Test D pre-/postemergence plant response; details: Postemergence; for Crabgrass, Large plant response rating: scale 0 to 100 (0 no effect, 100 complete control); for Plant response rating, Crabgrass, Large: scale 0 to 100, 0 no effect, 100 complete control
Method in brief: as §1

[4] = tested on: velvetleaf (Abutilon theophrasti); test: Test D pre-/postemergence plant response; details: Postemergence; for Plant response rating, Velvetleaf: scale 0 to 100, 0 no effect, 100 complete control
Method in brief: as §1

[5] = tested on: oilseed rape (Brassica napus); test: Test D pre-/postemergence plant response; details: Postemergence; for Plant response rating, Oilseed Rape: scale 0 to 100, 0 no effect, 100 complete control
Method in brief: as §1

[6] = tested on: winter wheat (Triticum aestivum); test: Test D pre-/postemergence plant response; details: Postemergence; for Plant response rating, Wheat: scale 0 to 100, 0 no effect, 100 complete control
Method in brief: as §1

wild oat (Avena fatua) = test: Test D postemergence plant response; details: for Plant response rating, Oat, Wild: scale 0 to 100, 0 no effect, 100 complete control
Method in brief: (§2)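 Plants grown in pots of peat moss–vermiculite medium with wetting agent and starter nutrients received postemergence applications of the formulated test chemicals at 2 to 18 cm height (1- to 4-leaf stage). After 13 to 15 days in a greenhouse, injury was scored visually against untreated controls, 0 (no effect) to 100 (complete control).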

[7] = tested on: chickweed (common chickweed, Stellaria media); test: Test D postemergence plant response; details: for Chickweed plant response rating: scale 0 to 100 (0 no effect, 100 complete control); for Plant response rating, Chickweed: scale 0 to 100, 0 no effect, 100 complete control
Method in brief: as §2

kochia (Kochia scoparia) = test: Test D postemergence plant response; details: for Plant response rating, Kochia: scale 0 to 100, 0 no effect, 100 complete control
Method in brief: as §2

[8] = tested on: small-flower umbrella sedge (Cyperus difformis); test: Test C flooded paddy test plant response; details: Flood, 250 g ai/ha; scale of 0 to 100 where 0 is no effect and 100 is complete control; 13 to 15 days
Method in brief: (§3)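 Flooded-pot format, 3 cm water over soil maintained for the test duration; test compounds dispensed into the water at the 2-leaf stage. Greenhouse holding 13 to 15 days. Plants evaluated visually relative to untreated controls, 0 meaning no effect and 100 complete control.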

[9] = tested on: barnyardgrass (Echinochloa crus-galli); test: Test C flooded paddy test plant response; details: Flood, 250 g ai/ha; scale of 0 to 100 where 0 is no effect and 100 is complete control; 13 to 15 days
Method in brief: as §3

rice (Oryza sativa) = test: Test C flooded paddy test plant response; details: Flood, 250 g ai/ha; scale of 0 to 100 where 0 is no effect and 100 is complete control; 13 to 15 days
Method in brief: as §3

[10] = tested on: ducksalad (Heteranthera limosa); test: Test C flooded paddy test plant response; details: Flood, 250 g ai/ha; scale of 0 to 100 where 0 is no effect and 100 is complete control; 13 to 15 days
Method in brief: as §3

[11] = 31 g ai/ha, scale 0 to 100 (0 no effect, 100 complete control)

Cc1cc(-c2ccccc2Oc2ncc(Cl)cn2)no1 [Compound 153]
50: Plant response rating, Velvetleaf ([4]; 125 g ai/ha) | Kochia plant response rating (kochia (Kochia scoparia); [11])
0: Johnsongrass plant response rating [1, 11] | Nutsedge, Yellow plant response rating [2, 11] | Crabgrass, Large plant response rating ([3]; 16 g ai/ha) | Wheat plant response rating [6, 11] | Oat, Wild plant response rating (wild oat (Avena fatua); [11]) | Plant response rating, Oat, Wild (wild oat (Avena fatua); 62 g ai/ha) | Plant response rating, Oat, Wild (wild oat (Avena fatua); 125 g ai/ha) | Sedge, Umbrella plant response rating [8] | Barnyardgrass plant response rating [9] | Rice plant response rating (rice (Oryza sativa)) | Ducksalad plant response rating [10]
85: Plant response rating, Oilseed Rape ([5]; 125 g ai/ha)
5: Plant response rating, Johnsongrass ([1]; 62 g ai/ha) | Plant response rating, Nutsedge, Yellow ([2]; 62 g ai/ha) | Plant response rating, Nutsedge, Yellow ([2]; 125 g ai/ha) | Crabgrass, Large plant response rating ([3]; 31 g ai/ha) | Plant response rating, Crabgrass, Large ([3]; 62 g ai/ha) | Plant response rating, Wheat ([6]; 62 g ai/ha)
25: Plant response rating, Chickweed ([7]; 125 g ai/ha)
20: Velvetleaf plant response rating [4, 11] | Chickweed plant response rating ([7]; 16 g ai/ha) | Chickweed plant response rating ([7]; 31 g ai/ha) | Plant response rating, Chickweed ([7]; 62 g ai/ha)
90: Plant response rating, Soybean (soybean (Glycine max); 125 g ai/ha)
10: Plant response rating, Johnsongrass ([1]; 125 g ai/ha) | Plant response rating, Crabgrass, Large ([3]; 125 g ai/ha) | Plant response rating, Wheat ([6]; 125 g ai/ha)
40: Soybean plant response rating (soybean (Glycine max); [11]) | Oilseed Rape plant response rating [5, 11] | Plant response rating, Kochia (kochia (Kochia scoparia); 62 g ai/ha)
60: Plant response rating, Velvetleaf ([4]; 62 g ai/ha) | Plant response rating, Oilseed Rape ([5]; 62 g ai/ha) | Plant response rating, Kochia (kochia (Kochia scoparia); 125 g ai/ha)
70: Plant response rating, Soybean (soybean (Glycine max); 62 g ai/ha)
